Here are results for one molecule from ChEMBL document CHEMBL2074144, “Pharmacokinetics of erythromycin in rabbit corneas after single-dose infusion: role of P-glycoprotein as a barrier to in vivo ocular drug absorption” (J Pharmacol Exp Ther, 2004).

The target of the data set is ATP-dependent translocase ABCB1 (Homo sapiens, UniProt P08183). Briefly: TP_TRANSPORTER: transepithelial transport in MDR1-expressing MDCK cells. In kind it is functional, cell-based. The conditions noted are these: dog.
ATP-dependent translocase ABCB1, sequence (P08183 whole entry): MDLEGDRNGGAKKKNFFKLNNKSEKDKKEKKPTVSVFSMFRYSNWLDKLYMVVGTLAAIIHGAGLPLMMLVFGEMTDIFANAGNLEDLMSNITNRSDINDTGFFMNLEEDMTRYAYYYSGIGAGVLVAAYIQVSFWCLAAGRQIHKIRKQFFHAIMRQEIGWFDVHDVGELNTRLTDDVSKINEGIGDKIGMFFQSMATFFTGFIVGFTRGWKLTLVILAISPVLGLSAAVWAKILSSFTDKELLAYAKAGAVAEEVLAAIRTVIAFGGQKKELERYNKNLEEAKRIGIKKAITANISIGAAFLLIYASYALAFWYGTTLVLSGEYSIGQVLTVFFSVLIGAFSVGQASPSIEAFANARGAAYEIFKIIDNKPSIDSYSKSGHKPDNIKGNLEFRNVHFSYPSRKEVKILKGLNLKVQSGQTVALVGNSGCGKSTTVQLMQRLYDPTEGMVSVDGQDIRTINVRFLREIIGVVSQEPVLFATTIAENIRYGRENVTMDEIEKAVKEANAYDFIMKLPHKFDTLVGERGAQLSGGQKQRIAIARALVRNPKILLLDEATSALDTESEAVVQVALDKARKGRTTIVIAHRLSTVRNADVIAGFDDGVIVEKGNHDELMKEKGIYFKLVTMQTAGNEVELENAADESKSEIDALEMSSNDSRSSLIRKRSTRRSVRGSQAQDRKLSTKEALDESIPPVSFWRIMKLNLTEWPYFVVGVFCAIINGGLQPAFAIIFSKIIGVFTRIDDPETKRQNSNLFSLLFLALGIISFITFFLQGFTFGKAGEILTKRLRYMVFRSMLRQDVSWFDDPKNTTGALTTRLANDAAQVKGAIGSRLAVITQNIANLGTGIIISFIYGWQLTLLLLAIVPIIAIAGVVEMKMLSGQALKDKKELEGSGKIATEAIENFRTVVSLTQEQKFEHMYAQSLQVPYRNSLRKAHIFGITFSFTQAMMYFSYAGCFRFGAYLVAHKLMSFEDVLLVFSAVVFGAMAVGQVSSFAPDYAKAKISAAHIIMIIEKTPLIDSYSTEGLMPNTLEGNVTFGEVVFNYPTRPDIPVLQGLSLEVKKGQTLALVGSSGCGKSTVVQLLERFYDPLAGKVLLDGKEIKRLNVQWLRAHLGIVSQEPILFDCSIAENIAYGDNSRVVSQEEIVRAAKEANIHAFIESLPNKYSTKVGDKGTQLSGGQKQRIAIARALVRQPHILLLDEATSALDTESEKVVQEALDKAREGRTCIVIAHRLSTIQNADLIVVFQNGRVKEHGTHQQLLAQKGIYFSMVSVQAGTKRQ

On to `CC[C@H]1OC(=O)[C@H](C)[C@@H](O[C@H]2C[C@@](C)(OC)[C@@H](O)[C@H](C)O2)[C@H](C)[C@@H](O[C@@H]2O[C@H](C)C[C@H](N(C)C)[C@H]2O)[C@](C)(OC)C[C@@H](C)C(=O)[C@H](C)[C@@H](O)[C@]1(C)O` [CLARITHROMYCIN], for which the Activity result is “substrate [+]”.
